# Literature values as cited in PMC12661886, “A phase 1/2 study of DS-1594 menin inhibitor in relapsed/refractory acute leukemias” (Journal of Hematology & Oncology, 2025).
# How the values were obtained:
# [1] = tested on: KMT2A-r and NPM1mut R/R AML; design: method as in doi:10.1182/blood-2024-194827
# [2] = tested on: MV4;11 cells harboring KMT2A-r with CRISPR-Cas9 induced menin mutations; design: method as in doi:10.1182/blood-2024-208887; details: menin mutations except M327
# [3] = tested on: R/R KMT2A-r ALL/AML/MPAL or R/R NPM1mut AML
# [4] = tested on: R/R NPM1mut, NUP98-r, KMT2A-r AML; design: method as in earlier work
# [5] = tested on: cell lines of KMT2A-r leukemia harboring MEN1-M327I or MEN1-T349M; design: method as in PMID 38905635
# QT and QTc intervals = tested on: QT and QTc intervals; design: method as in Investigator Brochure; details: predicted by exposure-response analysis; ref Investigator Brochure
compound,measurement,setting,value
C=C1C[C@@H]2CC[C@H]1[C@@H](C(=O)N1CCC3(CC1)CN(c1ncncc1Oc1ccc(F)cc1C(=O)N(C(C)C)C(C)C)C3)N2 [Enzomenib],"All grade DS, patients",[1],10.7%
same,"Grade 3 or higher DS, patients",[1],about 7%
same,"CR + CRh rate, KMT2A-r R/R AML",[1]; 200 mg or 300 mg BID,30%
same,"CR + CRh rate, NPM1mut R/R AML",[1]; 200 mg or 300 mg BID,47%
same,"ORR, KMT2A-r R/R AML",[1]; 200 mg or 300 mg BID,65%
same,"ORR, NPM1mut R/R AML",[1]; 200 mg or 300 mg BID,59%
CNc1nc(NC2CCN(Cc3ccc4c(cc(C#N)n4C[C@H](C)N4CCN(S(C)(=O)=O)CC4)c3C)CC2)c2cc(CC(F)(F)F)sc2n1 [ziftomenib],IC50,[2],22.2 nM
same,median DOR,R/R AML,6.6 months
same,responses in the dose finding phase,R/R AML,no significant responses were observed
same,"CR/CRh rate, R/R NPM1mut AML",R/R AML; 600 mg dose,35%
same,"patients achieving CR/CRh, NPM1mut AML previously treated with venetoclax",R/R AML; 600 mg dose,5/7
same,all-grade DS,R/R AML; KOMET phase 1a and 1b (n = 83),21%
same,grade 3 DS,R/R AML; KOMET phase 1a and 1b (n = 83),14%
same,CR/CRh rate,"R/R AML; RP2D 600 mg/day, phase 1b",25%
CCN(C(=O)c1cc(F)ccc1Oc1cncnc1N1CC2(CCN(C[C@H]3CC[C@H](NS(=O)(=O)CC)CC3)CC2)C1)C(C)C [revumenib],"grade 3 or higher QTc prolongation, patients",[3],14%
same,"median DOR, CR + CRh",[3],6.4 months
same,"median DOR, KMT2A-r acute leukemias with CR/CRh",[3],about 6 months
same,"median duration of response (DOR), patients with an ORR",[3],4.3 months
same,CR + CRh rate,[3]; AUGMENT 101,23%
same,overall response rate (ORR),[3]; AUGMENT 101,63%
same,"grade 3 or higher differentiation syndrome, patients",[3]; AUGMENT-101,16%
same,overall DS rate,[3]; AUGMENT-101 study,about 28%
same,CR/CRh rate,[4]; SAVE regimen,48%
same,consolidated with an HSCT,[4]; SAVE regimen,39%
same,median duration of CR/CRh,[4]; about 9 months median follow-up,not achieved
same,ORR,[4]; combination with oral decitabine-cedazuridine and venetoclax,82%
CCN(C(=O)c1cc(F)ccc1Oc1nncnc1N1CCC2(C1)CN([C@H](CCCN(C)CCOC)C(C)C)C2)C(C)C [bleximenib],efficacy in menin-mutant cell lines,[5],showed efficacy
same,IC50,[2],3.3 nM
COc1cc(-c2ccc(CN[C@H]3C[C@@H](O)[C@@H](N(C)c4ncnc5sc(CC(F)(F)F)cc45)C3)cc2)nnc1OC [DS-1594a],plasma concentration to induce QTc interval prolongation by 10 milliseconds,QT and QTc intervals,around 1000 ng/mL
